# Tested on: cynomolgus monkeys
# Experiment: 4-week safety study: serum biochemistry
# Type: in vivo
# Experimental: […] (1) Hematological and coagulation index examination were performed using a Bayer ADVIA2120 (Germany) and a Sysmex CA-1500 (Japan). (2) The serum biochemical examination was assessed using a HITACHI 7080 automated analyzer (Japan) and an Easylyte PLUS electrolyte analyzer (MEDICA, America). (3) The 24-h pooled urine of each animal was collected by a tray under each cage. Urinalysis was carried out using Uritest-300 (China). (4) The 24-h pooled faeces of each monkey were collected by a tray under each cage. Fecal occult blood was detected. (5) ACCESS 2 Chemiluminescence immunoassay was used for myocardial troponin (TropI, non-GLP) test.
smiles,measurement,setting,value
COC(=O)NCCCn1nc([C@@H](C)N(C(=O)[C@H]2CNCCO2)C2CC2)c2ccc(C)nc21 [compound of Formula I],BUN,"Female, 20 mg/kg, d0",6.1 ± 1.1 mmol/L
same,CHOL,"Female, 20 mg/kg, d0",3.0 ± 0.5 mmol/L
same,CPK,"Female, 20 mg/kg, d0",158.4 ± 63.5 U · L^−1
same,CREA,"Female, 20 mg/kg, d0",59 ± 4 µM
same,K,"Female, 20 mg/kg, d0",5.0 ± 0.3 mmol/L
same,Na,"Female, 20 mg/kg, d0",149.4 ± 3.5 mmol/L
same,BUN,"Female, 20 mg/kg, d14",5.4 ± 0.9 mmol/L
same,CHOL,"Female, 20 mg/kg, d14",2.8 ± 0.2 mmol/L
same,CPK,"Female, 20 mg/kg, d14",151.6 ± 45.2 U · L^−1
same,CREA,"Female, 20 mg/kg, d14",52.4 ± 3.8 µM
same,K,"Female, 20 mg/kg, d14",5.2 ± 0.2 mmol/L
same,Na,"Female, 20 mg/kg, d14",149.6 ± 1.7 mmol/L
same,BUN,"Female, 20 mg/kg, d26",6.3 ± 1.1 mmol/L
same,CHOL,"Female, 20 mg/kg, d26",2.7 ± 0.3 mmol/L
same,CPK,"Female, 20 mg/kg, d26",149.4 ± 58.7 U · L^−1
same,CREA,"Female, 20 mg/kg, d26",51.2 ± 3.6 µM
same,K,"Female, 20 mg/kg, d26",4.9 ± 0.5 mmol/L
same,Na,"Female, 20 mg/kg, d26",149.2 ± 4.3 mmol/L
same,BUN,"Female, 20 mg/kg, d 56",6.0 ± 0.6 mmol/L
same,CHOL,"Female, 20 mg/kg, d 56",3.0 ± 0.1 mmol/L
same,CPK,"Female, 20 mg/kg, d 56",129.0 ± 5.7 U · L^−1
same,CREA,"Female, 20 mg/kg, d 56",51.5 ± 4.9 µM
same,K,"Female, 20 mg/kg, d 56",5.0 ± 0.5 mmol/L
same,Na,"Female, 20 mg/kg, d 56",147.2 ± 4.2 mmol/L
same,BUN,"Female, 100 mg/kg, d0",5.9 ± 1.1 mmol/L
same,CHOL,"Female, 100 mg/kg, d0",3.8 ± 1.3 mmol/L
same,CPK,"Female, 100 mg/kg, d0",187.6 ± 75.0 U · L^−1
same,CREA,"Female, 100 mg/kg, d0",55.2 ± 4.7 µM
same,K,"Female, 100 mg/kg, d0",4.5 ± 0.4 mmol/L
same,Na,"Female, 100 mg/kg, d0",149.4 ± 1.9 mmol/L
same,BUN,"Female, 100 mg/kg, d14",6.4 ± 0.8 mmol/L
same,CHOL,"Female, 100 mg/kg, d14",2.9 ± 0.6 mmol/L
same,CPK,"Female, 100 mg/kg, d14",247.2 ± 89.5 U · L^−1
same,CREA,"Female, 100 mg/kg, d14",55.2 ± 3.8 µM
same,K,"Female, 100 mg/kg, d14",4.7 ± 0.5 mmol/L
same,Na,"Female, 100 mg/kg, d14",149.8 ± 3.7 mmol/L
same,BUN,"Female, 100 mg/kg, d26",6.4 ± 1.6 mmol/L
same,CHOL,"Female, 100 mg/kg, d26",3.1 ± 0.5 mmol/L
same,CPK,"Female, 100 mg/kg, d26",195.0 ± 96.8 U · L^−1
same,CREA,"Female, 100 mg/kg, d26",51.2 ± 3.6 µM
same,K,"Female, 100 mg/kg, d26",4.8 ± 0.6 mmol/L
same,Na,"Female, 100 mg/kg, d26",149.6 ± 3.8 mmol/L
same,BUN,"Female, 100 mg/kg, d 56",5.2 ± 0.2 mmol/L
same,CHOL,"Female, 100 mg/kg, d 56",3.6 ± 0.2 mmol/L
same,CPK,"Female, 100 mg/kg, d 56",112.0 ± 12.7 U · L^−1
same,CREA,"Female, 100 mg/kg, d 56",54.5 ± 4.9 µM
same,K,"Female, 100 mg/kg, d 56",4.2 ± 0.2 mmol/L
same,Na,"Female, 100 mg/kg, d 56",147.9 ± 1.3 mmol/L
same,BUN,"Female, 450 mg/kg, d0",6.1 ± 0.7 mmol/L
same,CHOL,"Female, 450 mg/kg, d0",3.3 ± 0.4 mmol/L
same,CPK,"Female, 450 mg/kg, d0",163.2 ± 56.2 U · L^−1
same,CREA,"Female, 450 mg/kg, d0",54.4 ± 7.1 µM
same,K,"Female, 450 mg/kg, d0",5.1 ± 0.5 mmol/L
same,Na,"Female, 450 mg/kg, d0",150.1 ± 2.2 mmol/L
same,BUN,"Female, 450 mg/kg, d14",14.3 ± 11.8 mmol/L
same,CHOL,"Female, 450 mg/kg, d14",2.4 ± 0.9 mmol/L
same,CPK,"Female, 450 mg/kg, d14",815.2 ± 1316.0 U · L^−1
same,CREA,"Female, 450 mg/kg, d14",162 ± 204 µM
same,K,"Female, 450 mg/kg, d14",5.5 ± 0.2 mmol/L
same,Na,"Female, 450 mg/kg, d14",144.6 ± 3.5 mmol/L
same,BUN,"Female, 450 mg/kg, d26",9.7 ± 1.0 mmol/L
same,CHOL,"Female, 450 mg/kg, d26",2.0 ± 0.7 mmol/L
same,CPK,"Female, 450 mg/kg, d26",328.5 ± 259.1 U · L^−1
same,CREA,"Female, 450 mg/kg, d26",64.3 ± 7.1 µM
same,K,"Female, 450 mg/kg, d26",5.3 ± 0.4 mmol/L
same,Na,"Female, 450 mg/kg, d26",145.0 ± 2.6 mmol/L
same,BUN,"Female, 450 mg/kg, d 56",5.6 ± 0.6 mmol/L
same,CHOL,"Female, 450 mg/kg, d 56",3.1 ± 0.3 mmol/L
same,CPK,"Female, 450 mg/kg, d 56",290.0 ± 176.8 U · L^−1
same,CREA,"Female, 450 mg/kg, d 56",57 ± 2.8 µM
same,K,"Female, 450 mg/kg, d 56",4.8 ± 0.2 mmol/L
same,Na,"Female, 450 mg/kg, d 56",145.7 ± 0.9 mmol/L
same,BUN,"Male, 20 mg/kg, d0",5.1 ± 0.9 mmol/L
same,CHOL,"Male, 20 mg/kg, d0",2.9 ± 0.5 mmol/L
same,CPK,"Male, 20 mg/kg, d0",156.6 ± 76.3 U · L^−1
same,CREA,"Male, 20 mg/kg, d0",64.2 ± 7.2 µM
same,K,"Male, 20 mg/kg, d0",5.1 ± 0.3 mmol/L
same,Na,"Male, 20 mg/kg, d0",148.7 ± 2.0 mmol/L
same,BUN,"Male, 20 mg/kg, d14",4.8 ± 0.5 mmol/L
same,CHOL,"Male, 20 mg/kg, d14",2.6 ± 0.4 mmol/L
same,CPK,"Male, 20 mg/kg, d14",128.2 ± 50.8 U · L^−1
same,CREA,"Male, 20 mg/kg, d14",65 ± 4.3 µM
same,K,"Male, 20 mg/kg, d14",4.6 ± 0.3 mmol/L
same,Na,"Male, 20 mg/kg, d14",148.7 ± 1.6 mmol/L
same,BUN,"Male, 20 mg/kg, d26",5.6 ± 0.3 mmol/L
same,CHOL,"Male, 20 mg/kg, d26",2.7 ± 0.5 mmol/L
same,CPK,"Male, 20 mg/kg, d26",154.4 ± 21.5 U · L^−1
same,CREA,"Male, 20 mg/kg, d26",64 ± 5.5 µM
same,K,"Male, 20 mg/kg, d26",5.4 ± 0.9 mmol/L
same,Na,"Male, 20 mg/kg, d26",147.9 ± 1.9 mmol/L
same,BUN,"Male, 20 mg/kg, d 56",5.2 ± 0.4 mmol/L
same,CHOL,"Male, 20 mg/kg, d 56",2.6 ± 0.1 mmol/L
same,CPK,"Male, 20 mg/kg, d 56",161.0 ± 87.7 U · L^−1
same,CREA,"Male, 20 mg/kg, d 56",64 ± 5.7 µM
same,K,"Male, 20 mg/kg, d 56",5.3 ± 1.1 mmol/L
same,Na,"Male, 20 mg/kg, d 56",144.6 ± 1.6 mmol/L
same,BUN,"Male, 100 mg/kg, d0",5.7 ± 0.5 mmol/L
same,CHOL,"Male, 100 mg/kg, d0",3.6 ± 0.4 mmol/L
same,CPK,"Male, 100 mg/kg, d0",161.4 ± 12.3 U · L^−1
same,CREA,"Male, 100 mg/kg, d0",66.6 ± 8.6 µM
same,K,"Male, 100 mg/kg, d0",4.8 ± 0.4 mmol/L
same,Na,"Male, 100 mg/kg, d0",149.1 ± 2.9 mmol/L
same,BUN,"Male, 100 mg/kg, d14",6.1 ± 1.5 mmol/L
same,CHOL,"Male, 100 mg/kg, d14",3.0 ± 0.6 mmol/L
same,CPK,"Male, 100 mg/kg, d14",213.4 ± 67.1 U · L^−1
same,CREA,"Male, 100 mg/kg, d14",63 ± 4.1 µM
same,K,"Male, 100 mg/kg, d14",4.8 ± 0.4 mmol/L
same,Na,"Male, 100 mg/kg, d14",148.3 ± 2.5 mmol/L
same,BUN,"Male, 100 mg/kg, d26",5.9 ± 1.0 mmol/L
same,CHOL,"Male, 100 mg/kg, d26",2.8 ± 0.3 mmol/L
same,CPK,"Male, 100 mg/kg, d26",179.8 ± 42.1 U · L^−1
same,CREA,"Male, 100 mg/kg, d26",63 ± 8.5 µM
same,K,"Male, 100 mg/kg, d26",5.2 ± 0.2 mmol/L
same,Na,"Male, 100 mg/kg, d26",147.1 ± 2.4 mmol/L
same,BUN,"Male, 100 mg/kg, d 56",5.7 ± 1.5 mmol/L
same,CHOL,"Male, 100 mg/kg, d 56",2.8 ± 0.6 mmol/L
same,CPK,"Male, 100 mg/kg, d 56",109.0 ± 9.9 U · L^−1
same,CREA,"Male, 100 mg/kg, d 56",58.5 ± 3.5 µM
same,K,"Male, 100 mg/kg, d 56",4.2 ± 0.0 mmol/L
same,Na,"Male, 100 mg/kg, d 56",146.5 ± 0.7 mmol/L
same,BUN,"Male, 450 mg/kg, d0",5.3 ± 0.6 mmol/L
same,CHOL,"Male, 450 mg/kg, d0",3.4 ± 0.5 mmol/L
same,CPK,"Male, 450 mg/kg, d0",140.4 ± 44.6 U · L^−1
same,CREA,"Male, 450 mg/kg, d0",68.6 ± 5.1 µM
same,K,"Male, 450 mg/kg, d0",5.2 ± 0.8 mmol/L
same,Na,"Male, 450 mg/kg, d0",148.4 ± 2.5 mmol/L
same,BUN,"Male, 450 mg/kg, d14",11.3 ± 6.7 mmol/L
same,CHOL,"Male, 450 mg/kg, d14",1.8 ± 0.3 mmol/L
same,CPK,"Male, 450 mg/kg, d14",290.2 ± 120.0 U · L^−1
same,CREA,"Male, 450 mg/kg, d14",116 ± 74.4 µM
same,K,"Male, 450 mg/kg, d14",5.0 ± 0.2 mmol/L
same,Na,"Male, 450 mg/kg, d14",146.4 ± 3.3 mmol/L
same,BUN,"Male, 450 mg/kg, d26",10.4 ± 3.1 mmol/L
same,CHOL,"Male, 450 mg/kg, d26",1.7 ± 0.3 mmol/L
same,CPK,"Male, 450 mg/kg, d26",133.6 ± 44.6 U · L^−1
same,CREA,"Male, 450 mg/kg, d26",79 ± 2.8 µM
same,K,"Male, 450 mg/kg, d26",5.2 ± 0.2 mmol/L
same,Na,"Male, 450 mg/kg, d26",144.3 ± 2.2 mmol/L
same,BUN,"Male, 450 mg/kg, d 56",5.1 ± 0.0 mmol/L
same,CHOL,"Male, 450 mg/kg, d 56",2.8 ± 0.3 mmol/L
same,CPK,"Male, 450 mg/kg, d 56",99.5 ± 7.8 U · L^−1
same,CREA,"Male, 450 mg/kg, d 56",66.5 ± 3.5 µM
same,K,"Male, 450 mg/kg, d 56",4.8 ± 0.8 mmol/L
same,Na,"Male, 450 mg/kg, d 56",145.3 ± 1.1 mmol/L
same,CREA,"high-dose female that died early on d23, d14 data",526 µM
same,CHOL,high-dose males,significantly decreased
same,Serum Na level,"high-dose males, d26, statistically significant",decreased slightly
same,BUN,"high-dose, both sexes",significantly increased
same,CPK,"high-dose, both sexes",significantly increased
same,CREA,"high-dose, both sexes",significantly increased

# From patent US20230330093A1, “APPLICATION OF NITROGEN-CONTAINING SATURATED HETEROCYCLIC COMPOUND” (SHANGHAI PHARMACEUTICALS HOLDING CO., LTD., priority 2020, published 2023)
